According to the NIST ThermoML archive (doi:10.1016/j.fluid.2011.12.029):

Conditions: Liquid, Vibrating tube method

CCCC[n+]1cccc(C)c1.N#C[N-]C#N [1-butyl-3-methylpyridinium dicyanamide]
Conditions | mass density [kg/m3]
283.15 K, 100 kPa | 1058.8
283.15 K, 5000 kPa | 1060.66
283.15 K, 10000 kPa | 1062.55
283.15 K, 15000 kPa | 1064.33
283.15 K, 20000 kPa | 1066.19
283.15 K, 25000 kPa | 1067.75
288.15 K, 100 kPa | 1055.64
288.15 K, 5000 kPa | 1057.59
288.15 K, 10000 kPa | 1059.47
288.15 K, 15000 kPa | 1061.24
288.15 K, 20000 kPa | 1063.09
288.15 K, 25000 kPa | 1064.88
288.15 K, 30000 kPa | 1066.59
288.15 K, 35000 kPa | 1068.35
288.15 K, 40000 kPa | 1070.07
288.15 K, 45000 kPa | 1071.67
288.15 K, 50000 kPa | 1073.24
293.15 K, 100 kPa | 1052.56
293.15 K, 5000 kPa | 1054.46
293.15 K, 10000 kPa | 1056.37
293.15 K, 15000 kPa | 1058.23
293.15 K, 20000 kPa | 1060.01
293.15 K, 25000 kPa | 1061.8
293.15 K, 30000 kPa | 1063.56
293.15 K, 35000 kPa | 1065.35
293.15 K, 40000 kPa | 1066.96
293.15 K, 45000 kPa | 1068.69
293.15 K, 50000 kPa | 1070.15
293.15 K, 55000 kPa | 1072.13
293.15 K, 60000 kPa | 1073.41
293.15 K, 65000 kPa | 1074.96
298.15 K, 100 kPa | 1049.45
298.15 K, 5000 kPa | 1051.35
298.15 K, 10000 kPa | 1053.24
298.15 K, 15000 kPa | 1055.19
298.15 K, 20000 kPa | 1057.08
298.15 K, 25000 kPa | 1058.87
298.15 K, 30000 kPa | 1060.59
298.15 K, 35000 kPa | 1062.37
298.15 K, 40000 kPa | 1064.1
298.15 K, 45000 kPa | 1065.73
298.15 K, 50000 kPa | 1067.37
298.15 K, 55000 kPa | 1069.04
298.15 K, 60000 kPa | 1070.61
298.15 K, 65000 kPa | 1072.1
303.15 K, 100 kPa | 1046.36
303.15 K, 5000 kPa | 1048.3
303.15 K, 10000 kPa | 1050.18
303.15 K, 15000 kPa | 1052.05
303.15 K, 20000 kPa | 1053.94
303.15 K, 25000 kPa | 1055.82
303.15 K, 30000 kPa | 1057.57
303.15 K, 35000 kPa | 1059.35
303.15 K, 40000 kPa | 1061.07
303.15 K, 45000 kPa | 1062.75
303.15 K, 50000 kPa | 1064.4
303.15 K, 55000 kPa | 1066.19
303.15 K, 60000 kPa | 1067.59
303.15 K, 65000 kPa | 1069.21
308.15 K, 100 kPa | 1043.21
308.15 K, 5000 kPa | 1045.23
308.15 K, 10000 kPa | 1047.28
308.15 K, 15000 kPa | 1049.14
308.15 K, 20000 kPa | 1051.02
308.15 K, 25000 kPa | 1052.92
308.15 K, 30000 kPa | 1054.8
308.15 K, 35000 kPa | 1056.51
308.15 K, 40000 kPa | 1058.23
308.15 K, 45000 kPa | 1059.9
308.15 K, 50000 kPa | 1061.71
308.15 K, 55000 kPa | 1063.27
308.15 K, 60000 kPa | 1064.76
308.15 K, 65000 kPa | 1066.44
313.15 K, 100 kPa | 1040.26
313.15 K, 5000 kPa | 1042.22
313.15 K, 10000 kPa | 1044.29
313.15 K, 15000 kPa | 1046.25
313.15 K, 20000 kPa | 1048.15
313.15 K, 25000 kPa | 1050.05
313.15 K, 30000 kPa | 1051.8
313.15 K, 35000 kPa | 1053.63
313.15 K, 40000 kPa | 1055.42
313.15 K, 45000 kPa | 1057.11
313.15 K, 50000 kPa | 1058.82
313.15 K, 55000 kPa | 1060.43
313.15 K, 60000 kPa | 1062.05
313.15 K, 65000 kPa | 1063.59
318.15 K, 100 kPa | 1037.22
318.15 K, 5000 kPa | 1039.29
318.15 K, 10000 kPa | 1041.17
318.15 K, 15000 kPa | 1043.3
318.15 K, 20000 kPa | 1045.08
318.15 K, 25000 kPa | 1046.98
318.15 K, 30000 kPa | 1048.91
318.15 K, 35000 kPa | 1050.75
318.15 K, 40000 kPa | 1052.38
318.15 K, 45000 kPa | 1054.09
318.15 K, 50000 kPa | 1055.97
318.15 K, 55000 kPa | 1057.54
318.15 K, 60000 kPa | 1059.3
318.15 K, 65000 kPa | 1060.96
323.15 K, 100 kPa | 1034.21
323.15 K, 5000 kPa | 1036.41
323.15 K, 10000 kPa | 1038.36
323.15 K, 15000 kPa | 1040.45
323.15 K, 20000 kPa | 1042.21
323.15 K, 25000 kPa | 1044.3
323.15 K, 30000 kPa | 1046.05
323.15 K, 35000 kPa | 1047.94
323.15 K, 40000 kPa | 1049.73
323.15 K, 45000 kPa | 1051.45
323.15 K, 50000 kPa | 1053.22
323.15 K, 55000 kPa | 1054.85
323.15 K, 60000 kPa | 1056.49
323.15 K, 65000 kPa | 1058.03
328.15 K, 100 kPa | 1031.21
328.15 K, 5000 kPa | 1033.17
328.15 K, 10000 kPa | 1035.31
328.15 K, 15000 kPa | 1037.3
328.15 K, 20000 kPa | 1039.35
328.15 K, 25000 kPa | 1041.31
328.15 K, 30000 kPa | 1042.96
328.15 K, 35000 kPa | 1044.93
328.15 K, 40000 kPa | 1046.72
328.15 K, 45000 kPa | 1048.66
328.15 K, 50000 kPa | 1050.54
328.15 K, 55000 kPa | 1052.18
328.15 K, 60000 kPa | 1053.85
328.15 K, 65000 kPa | 1055.47
333.15 K, 100 kPa | 1027.63
333.15 K, 5000 kPa | 1030.21
333.15 K, 10000 kPa | 1032.34
333.15 K, 15000 kPa | 1034.45
333.15 K, 20000 kPa | 1036.45
333.15 K, 25000 kPa | 1038.36
333.15 K, 30000 kPa | 1040.39
333.15 K, 35000 kPa | 1042.19
333.15 K, 40000 kPa | 1044.05
333.15 K, 45000 kPa | 1045.58
333.15 K, 50000 kPa | 1047.67
333.15 K, 55000 kPa | 1049.26
333.15 K, 60000 kPa | 1051.06
333.15 K, 65000 kPa | 1052.61
